# Test results reported in BindingDB's records for doi:10.1016/j.bmcl.2005.10.040 (Huazhong University of Science and Technology, 2005).
# Legend:
# [1] = target: 4-aminobutyrate aminotransferase, mitochondrial (Homo sapiens, UniProt P80404); test: Inhibitory activity against GABAT
# [2] = target: T1, Succinate-semialdehyde dehydrogenase, mitochondrial (Homo sapiens, UniProt P51649); test: Inhibitory activity against SSADH
# T1 sequence (P51649 whole entry): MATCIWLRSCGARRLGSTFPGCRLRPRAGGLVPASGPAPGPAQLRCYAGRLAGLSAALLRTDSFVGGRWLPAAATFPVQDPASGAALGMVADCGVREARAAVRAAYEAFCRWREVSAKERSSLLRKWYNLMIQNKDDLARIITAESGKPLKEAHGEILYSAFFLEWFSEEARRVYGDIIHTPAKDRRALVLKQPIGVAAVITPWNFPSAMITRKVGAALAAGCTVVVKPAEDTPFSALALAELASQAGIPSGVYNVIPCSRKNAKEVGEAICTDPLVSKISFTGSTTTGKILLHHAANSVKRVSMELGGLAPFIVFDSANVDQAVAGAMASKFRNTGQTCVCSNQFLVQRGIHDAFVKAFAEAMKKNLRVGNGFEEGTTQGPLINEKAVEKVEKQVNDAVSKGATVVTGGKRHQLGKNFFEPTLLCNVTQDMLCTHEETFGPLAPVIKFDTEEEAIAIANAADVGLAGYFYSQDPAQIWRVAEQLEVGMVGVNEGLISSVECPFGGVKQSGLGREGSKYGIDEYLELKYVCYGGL
# Chain of 4-aminobutyrate aminotransferase, mitochondrial (P80404 whole entry): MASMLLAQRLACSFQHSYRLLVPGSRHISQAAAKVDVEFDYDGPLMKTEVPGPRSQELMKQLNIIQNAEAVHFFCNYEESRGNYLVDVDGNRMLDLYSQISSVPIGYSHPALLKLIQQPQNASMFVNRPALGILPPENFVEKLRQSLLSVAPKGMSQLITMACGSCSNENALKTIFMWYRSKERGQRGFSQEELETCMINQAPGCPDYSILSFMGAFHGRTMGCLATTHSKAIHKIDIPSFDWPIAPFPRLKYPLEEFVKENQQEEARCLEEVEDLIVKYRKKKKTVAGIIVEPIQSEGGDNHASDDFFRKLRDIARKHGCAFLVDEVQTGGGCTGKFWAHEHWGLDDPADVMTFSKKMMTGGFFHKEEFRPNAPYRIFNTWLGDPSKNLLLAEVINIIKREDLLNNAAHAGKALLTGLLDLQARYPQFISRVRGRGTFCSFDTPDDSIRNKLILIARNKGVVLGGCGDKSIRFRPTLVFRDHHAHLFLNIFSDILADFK
Compound,IC50 [1] [µM],IC50 [2] [µM]
COc1cc(CN=O)ccc1O [4-hydroxy-3-methoxybenzaldehyde oxime],> 1000,> 1000
O=NCc1ccc(O)cc1 [4-hydroxybenzaldehyde oxime],> 1000,> 1000
